Key:
Experiment in all cases: single-round in vitro transcription termination
Conditions in all cases: apparent; co-transcriptional
[1] = system: metI SAM-I riboswitch transcript, wild-type (RNA, riboswitch) ACUUAGAAAAUUGAAAUCGAUAUUUCUUAUCGUGAGAGGUGGAGGGACUGGCCCUUAGAAACCUCAGCAACCGGCUUGUUUUGCAUUUGCAAAGCGCCAAGGUGCUAAAUCCAGCAAGCGUUUUUUAUGCUUGGAAGAUAAGAAGAAGCGUUAAACCCCUUCUUCUUAUGAAGAAGGGGUUUUUAUUUUGAAAAGGGAAGGUGUCAGCUAUAUGUCACAGCACGUUGAAACGAAAUUAGCUCAAAUUGGGAA
[2] = system: metI SAM-I riboswitch transcript, U114A:A138U (RNA, riboswitch) ACUUAGAAAAUUGAAAUCGAUAUUUCUUAUCGUGAGAGGUGGAGGGACUGGCCCUUAGAAACCUCAGCAACCGGCUUGUUUUGCAUUUGCAAAGCGCCAAGGUGCUAAAACCAGCAAGCGUUUUUUAUGCUUGGAUGAUAAGAAGAAGCGUUAAACCCCUUCUUCUUAUGAAGAAGGGGUUUUUAUUUUGAAAAGGGAAGGUGUCAGCUAUAUGUCACAGCACGUUGAAACGAAAUUAGCUCAAAUUGGGAA
[3] = system: metI SAM-I riboswitch transcript, GUU (U114A:A137U:A138U) (RNA, riboswitch) ACUUAGAAAAUUGAAAUCGAUAUUUCUUAUCGUGAGAGGUGGAGGGACUGGCCCUUAGAAACCUCAGCAACCGGCUUGUUUUGCAUUUGCAAAGCGCCAAGGUGCUAAAACCAGCAAGCGUUUUUUAUGCUUGGUUGAUAAGAAGAAGCGUUAAACCCCUUCUUCUUAUGAAGAAGGGGUUUUUAUUUUGAAAAGGGAAGGUGUCAGCUAUAUGUCACAGCACGUUGAAACGAAAUUAGCUCAAAUUGGGAA

T50 [1]: ~ 183 nM
T50 [2]: ~ 673 nM
T50 [3]: ~ 1.3 µM
Structure (SMILES): C[S+](CC[C@H](N)C(=O)O)C[C@H]1O[C@@H](n2cnc3c(N)ncnc32)[C@H](O)[C@@H]1O (stereo partly drawn)

— PMC5602112 (2017)
